Measured values published in patent US20090117127A1, “Novel Compounds and Methods for Their Production” (priority 2006, published 2009).

What was measured:
[1] = molecular target: Hsp90 (Homo sapiens, UniProt P07900); conditions: cited from earlier work
[2] = system: CNXF 498NL; assay: monolayer proliferation assay, modified propidium iodide assay; type: cell-based, human; conditions: CNXF 498NL (CNS), 4 days continuous exposure
Method: (§1) In vitro evaluation of compounds for anticancer activity in a panel of human tumour cell lines in a monolayer proliferation assay was carried out at the Oncotest Testing Facility, Institute for Experimental Oncology, Oncotest GmbH, Freiburg.
(§2) The Oncotest cell lines are established from human tumor xenografts as described by Roth et al., (1999). The origin of the donor xenografts was described by Fiebig et al., (1999). Other cell lines are either obtained from the NCI (DU145, MCF-7) or purchased from DSMZ, Braunschweig, Germany.
(§3) All cell lines, unless otherwise specified, were grown at 37° C. in a humidified atmosphere (95% air, 5% CO2) in a ‘ready-mix’ medium containing RPMI 1640 medium, 10% fetal calf serum, and 0.1 mg/mL gentamicin (PAA, Cölbe, Germany).
(§4) A modified propidium iodide assay was used to assess the effects of the test compound(s) on the growth of human tumour cell lines (Dengler et al., (1995)).
(§5) Briefly, cells were harvested from exponential phase cultures by trypsinization, counted and plated in 96 well flat-bottomed microtitre plates at a cell density dependent on the cell line (5-10.000 viable cells/well). After 24 h recovery to allow the cells to resume exponential growth, 0.010 mL of culture medium (6 control wells per plate) or culture medium containing the 11-O-desmethylmacbecin analogue were added to the wells. Each concentration was plated in triplicate. Compounds were applied in two concentrations (1 μg/mL and 10 μg/mL). Following 4 days of continuous exposure, cell culture medium with or without test compound was replaced by 0.2 mL of an aqueous propidium iodide (PI) solution (7 mg/L). To measure the proportion of living cells, cells were permeabilized by freezing the plates. After thawing the plates, fluorescence was measured using the Cytofluor 4000 microplate reader (excitation 530 nm, emission 620 nm), giving a direct relationship to the total number of viable cells. Growth inhibition was expressed as treated/control×100 (% T/C).
(§6) In vitro evaluation of the test compounds for anticancer activity in a panel of human tumour cell lines in a monolayer proliferation assay was carried out as described in the general methods using a modified propidium iodide assay.

[3] = system: LXF 1121L; assay: as above; type: cell-based, human; conditions: LXF 1121L (lung, large cell ca), 4 days continuous exposure
Method: as §1, §2, §3, §4, §5, §6

[4] = system: MCF-7; assay: as above; type: cell-based, human; conditions: MCF-7 (breast), 4 days continuous exposure
Method: as §1, §2, §3, §4, §5, §6

[5] = system: DU145; assay: as above; type: cell-based, human; conditions: DU145 (prostate, PTEN positive), 4 days continuous exposure
Method: as §1, §2, §3, §4, §5, §6

[6] = system: CXF HT29; assay: as above; type: cell-based, human; conditions: CXF HT29 (colon), 4 days continuous exposure
Method: as §1, §2, §3, §4, §5, §6

[7] = system: MEXF 394NL; assay: as above; type: cell-based, human; conditions: MEXF 394NL (melanoma), 4 days continuous exposure
Method: as §1, §2, §3, §4, §5, §6

[8] = system: Reverse transcriptase; conditions: cited from earlier work
[9] = molecular target: terminal deoxynucleotidyl transferase (Homo sapiens, UniProt P04053); conditions: cited from earlier work
Sequence of terminal deoxynucleotidyl transferase (P04053 whole entry, species assumed): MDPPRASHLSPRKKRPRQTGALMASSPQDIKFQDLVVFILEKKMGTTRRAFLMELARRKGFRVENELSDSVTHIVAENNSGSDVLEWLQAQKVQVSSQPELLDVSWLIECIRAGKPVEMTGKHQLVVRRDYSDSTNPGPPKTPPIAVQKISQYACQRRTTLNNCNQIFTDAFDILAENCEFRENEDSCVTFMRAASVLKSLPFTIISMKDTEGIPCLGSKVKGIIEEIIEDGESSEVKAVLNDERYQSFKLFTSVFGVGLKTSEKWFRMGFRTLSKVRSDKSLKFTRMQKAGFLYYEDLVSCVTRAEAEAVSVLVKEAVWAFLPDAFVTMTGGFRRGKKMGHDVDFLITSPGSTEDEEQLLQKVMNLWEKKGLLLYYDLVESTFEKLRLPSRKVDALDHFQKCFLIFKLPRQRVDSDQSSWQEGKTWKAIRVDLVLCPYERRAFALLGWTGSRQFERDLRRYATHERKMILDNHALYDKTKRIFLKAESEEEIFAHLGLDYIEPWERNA

| SMILES | binding affinity to Hsp90, greater than 17-AAG ([1]; relative to 17-AAG) | binding affinity to Hsp90, greater than geldanamycin ([1]; relative to geldanamycin) | Test/Control (%) at drug concentration ([2]; 1 μg/mL) | Test/Control (%) at drug concentration ([2]; 10 μg/mL) | Test/Control (%) at drug concentration ([3]; 1 μg/mL) | Test/Control (%) at drug concentration ([3]; 10 μg/mL) | Test/Control (%) at drug concentration ([4]; 1 μg/mL) | Test/Control (%) at drug concentration ([4]; 10 μg/mL) | Test/Control (%) at drug concentration ([5]; 1 μg/mL) | Test/Control (%) at drug concentration ([5]; 10 μg/mL) | Test/Control (%) at drug concentration ([6]; 1 μg/mL) | Test/Control (%) at drug concentration ([6]; 10 μg/mL) | Test/Control (%) at drug concentration ([7]; 1 μg/mL) | Test/Control (%) at drug concentration ([7]; 10 μg/mL) | inhibition of reverse transcriptase activity [8] | inhibition of terminal deoxynucleotidyl transferase activity [9] |
| --- | --- | --- | --- | --- | --- | --- | --- | --- | --- | --- | --- | --- | --- | --- | --- | --- |
| CO[C@H]1C[C@H](C)Cc2cc(O)cc(c2)NC(=O)/C=C/CC[C@H](OC)[C@@H](OC(N)=O)/C(C)=C/[C@H](C)[C@H]1O [KOSN1559] | 8 fold | 4 fold |  |  |  |  |  |  |  |  |  |  |  |  |  |  |
| CO[C@H]1C[C@H](C)CC2=CC(=O)C=C(NC(=O)/C(C)=C/CC[C@H](C)[C@@H](OC(N)=O)/C(C)=C/[C@H](C)[C@H]1O)C2=O [compound 17, 4,5-dihydro-11-O-desmethyl-15-desmethoxymacbecin] |  |  | 35% | 8% | 55% | 17% | 35% | 5% | 18% | 5% | 52% | 6% | 38% | 4% |  |  |
| CO[C@H]1[C@@H](OC)C[C@H](C)[C@@H](OC)C2=CC(=O)C=C(NC(=O)/C(C)=C/C=C\[C@H](C)[C@@H](OC(N)=O)/C(C)=C/[C@@H]1C)C2=O [Macbecin, macbecin, reference compound] |  |  | 29% | 14% | 30% | 17% | 42% | 19% | 13% | 5% | 22% | 8% | 16% | 13% | not inhibited | not inhibited |
| CO[C@H]1C[C@H](C)CC2=CC(=O)C=C(NC(=O)/C(C)=C/C=C\[C@H](C)[C@@H](OC(N)=O)/C(C)=C/[C@H](C)[C@H]1O)C2=O [compound 15, 11-O-desmethyl-15-desmethoxymacbecin] |  |  | 30% | 9% | 57.7% | 11.7% | 49.3% | 13.7% | 16.3% | 6% | 37.7% | 9% | 22% | 5% |  |  |
| CO[C@H]1C[C@H](C)[C@@H](O)C2=CC(=O)C=C(NC(=O)/C(C)=C/C=C\[C@H](C)[C@@H](OC(N)=O)/C(C)=C/[C@H](C)[C@H]1O)C2=O [compound 14, 11-O-desmethyl-15-O-desmethylmacbecin] |  |  | 82.7% | 45.3% | 83.3% | 57.7% | 83.7% | 58.7% | 78.7% | 35% | 88.7% | 55% | 50.7% | 77% |  |  |
